Results taken from the supplement of paper PMC10307832.

Key:
Test in all cases: relative viability (nuclei count vs DMSO), 5 days (fraction); higher = more cells survive
Kobe2602 + Decitabine = compound: C1=CC(=CC=C1NC(=S)NNC2=C(C=C(C=C2[N+](=O)[O-])C(F)(F)F)[N+](=O)[O-])F [Kobe2602] + Nc1ncn([C@H]2C[C@H](O)[C@@H](CO)O2)c(=O)n1 [Decitabine] (partner 2 µM)
Summary of the method: (§1)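 Five library-drug doses in √10 steps were combined with a fixed anchor-drug dose, or a single drug was given alone, by pin tool to lung cancer cell lines in 1536-well plates the day after seeding. Nuclei were stained and counted after 5 days. Relative viability is the nuclei count in treated wells over that in vehicle wells, taken as the median of duplicate plates.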

Cabozantinib + Dasatinib = compound: COc1cc2nccc(Oc3ccc(NC(=O)C4(C(=O)Nc5ccc(F)cc5)CC4)cc3)c2cc1OC [Cabozantinib] + Cc1nc(Nc2ncc(C(=O)Nc3c(C)cccc3Cl)s2)cc(N2CCN(CCO)CC2)n1 [Dasatinib] (partner 0.075 µM)
Summary of the method: as §1

Zosuquidar + Trametinib = compound: O[C@@H](COc1cccc2ncccc12)CN1CCN([C@@H]2c3ccccc3[C@@H]3[C@H](c4ccccc42)C3(F)F)CC1 [Zosuquidar] + CC(=O)Nc1cccc(-n2c(=O)n(C3CC3)c(=O)c3c(Nc4ccc(I)cc4F)n(C)c(=O)c(C)c32)c1 [Trametinib] (partner 0.02 µM)
Summary of the method: as §1

Zosuquidar + Bortezomib = compound: O[C@@H](COc1cccc2ncccc12)CN1CCN([C@@H]2c3ccccc3[C@@H]3[C@H](c4ccccc42)C3(F)F)CC1 [Zosuquidar] + CC(C)C[C@H](NC(=O)[C@H](Cc1ccccc1)NC(=O)c1cnccn1)B(O)O [Bortezomib] (partner 0.002 µM)
Summary of the method: as §1

Row | Cell Line | relative viability (Kobe2602 + Decitabine; first compound 0.2 µM) | relative viability (Kobe2602 + Decitabine; first compound 0.6325 µM) | relative viability (Kobe2602 + Decitabine; first compound 6.325 µM) | relative viability (Kobe2602 + Decitabine; first compound 20 µM) | relative viability (Cabozantinib + Dasatinib; first compound 0.02 µM) | relative viability (Cabozantinib + Dasatinib; first compound 0.06325 µM) | relative viability (Cabozantinib + Dasatinib; first compound 0.2 µM) | relative viability (Cabozantinib + Dasatinib; first compound 0.6325 µM) | relative viability (Cabozantinib + Dasatinib; first compound 2 µM) | relative viability (Zosuquidar + Trametinib; first compound 0.01 µM) | relative viability (Zosuquidar + Trametinib; first compound 0.03162 µM) | relative viability (Zosuquidar + Trametinib; first compound 0.3162 µM) | relative viability (Zosuquidar + Trametinib; first compound 1 µM) | relative viability (Zosuquidar + Bortezomib; first compound 0.01 µM) | relative viability (Zosuquidar + Bortezomib; first compound 0.03162 µM) | relative viability (Zosuquidar + Bortezomib; first compound 0.3162 µM) | relative viability (Zosuquidar + Bortezomib; first compound 1 µM) | relative viability (Kobe2602 + Decitabine; first compound 2 µM) | relative viability (Zosuquidar + Trametinib; first compound 0.1 µM) | relative viability (Zosuquidar + Bortezomib; first compound 0.1 µM)
1 | LCLC-97TM1 | 0.234 | 0.229 | 0.242 | 0.28 | 0.723 | 0.854 | 0.757 | 0.848 | 0.717 | 0.171 | 0.19 | 0.21 | 0.206 | 0.433 | 0.538 | 0.844 | 0.464 |  |  | 
2 | LU99A | 0.913 | 1.01 | 0.955 | 0.859 | 0.461 | 0.715 | 0.412 | 0.448 | 0.523 | 0.55 | 0.597 | 0.537 | 0.551 | 1.09 | 1.14 | 1.34 | 1.37 | 0.746 | 0.522 | 1.22
3 | NCI-H1299 |  |  |  |  |  |  |  |  |  |  |  |  |  | 1.01 | 1.01 | 0.962 | 1.03 |  |  | 0.997
4 | NCI-H1355 | 0.312 | 0.368 | 0.346 | 0.358 | 0.563 | 0.78 | 0.73 | 0.678 | 0.734 | 0.461 | 0.416 | 0.557 | 0.401 | 1.15 | 1.26 | 1.33 | 1.24 | 0.301 | 0.435 | 1.1
5 | HARA | 0.566 | 0.591 | 0.537 | 0.499 | 0.251 | 0.312 | 0.221 | 0.296 | 0.233 | 0.833 | 0.938 | 1.03 | 0.541 | 1.14 | 1.14 | 1.13 | 1.14 | 0.5 | 0.772 | 1.08
6 | LXF-289 | 0.387 | 0.432 | 0.381 | 0.378 | 0.126 | 0.206 | 0.155 | 0.117 | 0.0913 | 0.614 | 0.703 | 0.727 | 0.654 | 0.993 | 1.01 | 0.99 | 0.976 | 0.386 | 0.675 | 1.01
7 | 201T | 0.89 | 0.892 | 0.949 | 0.876 | 0.385 | 0.549 | 0.573 | 0.534 | 0.545 | 0.731 | 0.742 | 0.691 | 0.719 | 1.09 | 1.05 | 1.05 | 1.06 | 0.872 | 0.684 | 0.939
8 | HCC-827 | 0.354 | 0.266 | 0.325 | 0.404 | 0.327 | 0.31 |  | 0.262 | 0.242 | 0.539 | 0.486 | 0.535 | 0.529 | 0.931 | 0.961 | 1.05 | 0.844 | 0.355 | 0.476 | 1.05
9 | NCI-H1703 |  |  |  |  |  |  |  |  |  |  |  |  |  | 0.441 | 0.329 | 0.397 | 0.567 |  |  | 0.371
10 | NCI-H1975 | 0.402 | 0.427 | 0.379 | 0.4 | 0.285 | 0.365 | 0.344 | 0.36 | 0.326 | 0.431 | 0.351 | 0.528 | 0.337 | 0.362 | 0.34 | 0.437 | 0.341 | 0.419 | 0.299 | 0.425
